Earlier results in patent US4256727A, “Synthesis and use of diagnostic radio-pharmaceuticals comprising radioactive isotopes of bromine with dyes” (The University of Kentucky Research Foundation, priority 1978, dated 1981).

Key:
[1] = formulated with propylene glycol and stored at refrigerated temperatures
[2] = rate at which the drug is cleared from the blood after injection

stability of the product [1]	Structure (SMILES)	half life of clearance from the blood [2] [min]
stable	O=C1OC2(c3cc(I)c(O)c(I)c3Oc3c2cc(I)c(O)c3I)c2c(Cl)c(Cl)c(Cl)c(Cl)c21 [Rose Bengal]	8 to 10
–	O=S1(=O)OC(c2cc(Br)c(O)c(Br)c2)(c2cc(Br)c(O)c(Br)c2)c2ccccc21 [bromphenol blue, 4,4'-(3H-2,1,-benzoxathiol-3-ylidene)bis[2,6-dibromophenol]S,S,-dioxide]	1.5
